Data on 10 compounds can be found in publication PMC10434032 (Microbiology Spectrum, 2023).

Data set [1] has as its system MPXV Zr-599 (Congo Basin strain, clade I). Type of data set: cell-based, Mpox virus.
The test system of data set [2] is MPXV. In words: microbe, parasite or virus in culture. Type of data set: cell-based, Mpox virus. The note with it: Monkeypox virus; for IC50: Vero C1008, read-out: Anti-MPXV activity: IC50; for IC90: Vero C1008, read-out: Anti-MPXV activity: IC90.
Data set [3] has as its system MPXV. Format: cell-based, Mpox virus.
Data set [4] is described as follows: in vitro. The note with it: African green monkey.
The subject of data set [5] is MPXV. Put plainly: microbe, parasite or virus in culture. Type of data set: cell-based, Mpox virus. The conditions noted are these: for IC50 / IC90: Monkeypox virus, Huh-7, 24 h; for IC50: read-out: Anti-MPXV activity: IC50; for IC90: read-out: Anti-MPXV activity: IC90.
The nature of data set [6]: in vitro. The conditions noted are these: human.
Data set [7] has as its system MPXV. Format: cell-based, Mpox virus. The source holds these as a separate data set.
The subject of data set [8] is MPXV Liberia strain (West African strain, clade IIa). Type of data set: cell-based, Mpox virus.
In data set [9] the test system is MPXV SPL-mpx2A7 strain (clade IIb). Format: cell-based, Mpox virus.
The subject of data set [10] is vaccinia virus (LC16m8). Format: cell-based.
Data set [11] deals with cowpox virus (Brighton Red). Format: cell-based.
Data set [12] deals with MPXV. Type of data set: cell-based, Mpox virus. This is another data set of the same source.
In data set [13] the test system is MPXV. Format: cell-based, Mpox virus. This is another data set of the same source.
Data set [14] relates to ISG15 and ISG56. Format: cell-based, human.

Read-outs that look alike come from different tables or passages of the source.

Regarding `CCCCCCCCCCCCCCCCOCCCOP(=O)(O)CO[C@H](CO)Cn1ccc(N)nc1=O` [brincidofovir], the “number of surviving cells (fold relative to DMSO-treated control cells)” value in [1] was 103 fold. Besides, in [2], the IC50 was 2100 nM and the IC90 came to 4290 nM. Moreover, the “antiviral activity by treatment period (a whole life cycle 0-24 h, b entry phase 0-2 h, c postentry 2-24 h)” value (from here on “antiviral activity by treatment period”) in [3] was “significant antiviral activity in conditions a and c but not in condition b”. This compound also yielded a CC50 in [4] of more than 10000 nM.
Regarding `COc1cc(NC(=O)Nc2cccc(CNC(=O)O[C@H]3CCOC3)c2)ccc1-c1cnco1` [Merimepodib, merimepodib], in data set [5], the IC50 came out at 290 nM and the IC90 is 610 nM. This compound also came in with a CC50 in data set [6] of more than 10000 nM.
As to `Nc1ccn([C@@H]2O[C@H](CO)[C@@H](O)C2(F)F)c(=O)n1` [gemcitabine], the “MPXV protein expression (immunofluorescence)” value (“MPXV protein expression” for short) in data set [7] is listed as “drastically reduced”. In addition, the “expression of viral proteins (immunofluorescence)” value (from here on “expression of viral proteins”) in [8], in data set [9], in data set [10] and in [11] was “clearly reduced” each time. Moreover, the IC50 in [2] turned out to be 24 nM. In data set [2], the IC90 is 26 nM. Moreover, in data set [3], the “antiviral activity by treatment period” value is “significantly reduced under conditions a and c but not under condition b”. Further, in [12], the “virions observed in cells by electron microscopy” value (shortened to “virions observed in cells”) is reported as “few virions were observed”. The compound further gave a CC50 in data set [4] of more than 100000 nM.
With `CC[C@H](CC#N)OC(=O)N[C@@H](C)c1cccc(NC(=O)Nc2ccc(-c3cnco3)c(OC)c2)c1` [AVN-944], in data set [5], the IC50 stood at 15 nM and the IC90 was 42 nM. The compound also showed a CC50 in data set [6] of more than 10000 nM.
heparin: the “antiviral activity by treatment period” value in data set [3] was “significant antiviral activity under condition b”.
On to `COc1c(C)c2c(c(O)c1C/C=C(\C)CCC(=O)OCCN1CCOCC1)C(=O)OC2` [Mycophenolate mofetil, mycophenolate mofetil], for which, in data set [5], the IC50 turned out to be 340 nM and the IC90 was 1080 nM. This compound registered a CC50 in data set [6] of more than 10000 nM.
Take `O=c1[nH]c(=O)n([C@H]2C[C@H](O)[C@@H](CO)O2)cc1C(F)(F)F` [trifluridine]: in data set [7], the “MPXV protein expression” value is listed as “drastically reduced”. For the same compound, the “expression of viral proteins” value in data set [8], in data set [9], in data set [10] and in data set [11] was “clearly reduced” throughout. For the same compound, in data set [2], the IC50 came to 490 nM. Also, in data set [2], the IC90 was 890 nM. The “antiviral activity by treatment period” value in data set [3] is “significantly reduced under conditions a and c but not under condition b”. Further, the “virions observed in cells” value in data set [12] is given as “few virions were observed”. Also, in data set [4], the CC50 is more than 100000 nM.
Take `COc1c(C)c2c(c(O)c1C/C=C(\C)CCC(=O)O)C(=O)OC2` [MPA, mycophenolic acid]: in data set [7], the “MPXV protein expression” value is on record as “drastically reduced”. Further, the “expression of viral proteins” value in data set [8], in data set [9], in data set [10] and in data set [11] was “clearly reduced” in each case. For the same compound, the IC50 is 260 nM in data set [2] and 940 nM in data set [5]. The IC90 in data set [2] was determined as 370 nM; in data set [5], 3350 nM. In data set [3], the “antiviral activity by treatment period” value was “significantly reduced under conditions a and c but not under condition b”. Moreover, the “virions observed in cells” value in data set [12] is reported as “few virions were observed”. In addition, the “selectivity index (SI = CC50/IC50)” value in [5] is listed as more than 10.6. Moreover, the “effect of guanosine supplementation on MPA-mediated reduction of viral DNA levels” value in data set [13] is recorded as “clearly recovered the MPA-mediated reduction of viral DNA levels in a dose-dependent manner”. Moreover, the “induction of interferon-stimulated genes ISG15 and ISG56” value in data set [14] is recorded as “did not observe significant induction”. Also, the CC50 in [4] is more than 100000 nM; in [6], more than 10000 nM.
In the case of `O=C(NN1C(=O)[C@@H]2[C@@H]3C=C[C@@H]([C@H]4C[C@@H]34)[C@@H]2C1=O)c1ccc(C(F)(F)F)cc1` [tecovirimat], the “number of surviving cells (fold relative to DMSO-treated control cells)” value in data set [1] was determined as 223 fold. The “virions observed in cells” value in data set [12] is “crescents, immature, and mature virions but not wrapped virions were observed”.
For `NC(=O)c1ncn([C@@H]2O[C@H](CO)[C@@H](O)[C@H]2O)n1` [Ribavirin, ribavirin], in data set [5], the IC50 came out at 13000 nM and the IC90 worked out at 44000 nM. For the same compound, the CC50 in data set [6] is more than 100000 nM.

In general, IC50 refers to the concentration needed to halve the response being measured. By IC90 is commonly meant the concentration needed for an effect of 90%.
